Experimental data from publication PMC9543391, “ERp57 chaperon protein protects neuronal cells from Aβ‐induced toxicity” (Journal of Neurochemistry, 2022).
Blank lines part the entries; values can stand above or below the compound they belong to. Peptide text beside a SMILES is read from it.

Experiments:
ERp57 = target: T1, ERp57 (Homo sapiens, UniProt P30101); test: Surface plasmon resonance, Aβ25−35 binding to immobilized ERp57; details: SPR, ERp57 on COOH5 sensorchip; global fitting with one binding site; non-aggregated Aβ25−35 15.6 μM–1.0 mM; HBSP buffer pH 7.4; 25°C; read-out: overall K D
T1 construct: made in house; host or cells: E. coli BL21, vector pET21
T1 sequence (P30101 25-505): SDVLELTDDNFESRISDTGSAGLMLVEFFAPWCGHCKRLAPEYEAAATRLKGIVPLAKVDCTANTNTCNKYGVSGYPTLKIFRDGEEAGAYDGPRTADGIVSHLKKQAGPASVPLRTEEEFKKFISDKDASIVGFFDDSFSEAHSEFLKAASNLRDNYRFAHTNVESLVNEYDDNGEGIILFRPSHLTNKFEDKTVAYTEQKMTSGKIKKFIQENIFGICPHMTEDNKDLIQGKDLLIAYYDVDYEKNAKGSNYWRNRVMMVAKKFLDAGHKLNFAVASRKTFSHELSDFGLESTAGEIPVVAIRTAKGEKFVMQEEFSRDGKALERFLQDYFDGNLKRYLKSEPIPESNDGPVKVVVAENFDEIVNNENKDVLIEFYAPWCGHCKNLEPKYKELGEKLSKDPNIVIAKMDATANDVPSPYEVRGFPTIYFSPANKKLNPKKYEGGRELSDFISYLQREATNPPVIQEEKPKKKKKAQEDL
Source text: Human recombinant PDIA3 was cloned and expressed in E. coli strain BL21 (Invitrogen™, catalog number C600003) using the expression vector pET21 (Novagen, catalog number 69770) as described by Coppari (Coppari et al., [2002]). The coding sequence for the second redox‐active domain (aʹ domain, residues 377–505) was amplified by PCR as previously described and cloned in the expression vector pET29 (Novagen) (Grillo et al., [2002]). Recombinant proteins were expressed in E. coli strain BL21 and purified by ammonium sulfate fractionation, ion exchange, and heparin chromatography (Grillo et al., [2006]). Protein purification was evaluated by SDS‐PAGE and concentration was determined spectrophotometrically (PDIA3 Ɛ280 reduced form = 44 810 M^−1 cm^−1, aʹ domain Ɛ280 reduced form = 14 400 M^−1 cm^−1). Rabbit anti‐ERp57 primary antibody will be shared upon reasonable request.
SPR experiments were performed with a SensiQ Pioneer apparatus. […] The amount of immobilized ERp57 was detected by mass concentration‐dependent changes in the refractive index on the sensorchip surface and corresponded to about 4000 resonance units (RU). […] Values of the plateau signal at steady‐state (Req) and full fittings with 1, 2, and 3 sites were calculated from kinetic evaluation of the sensorgrams using the Qdat 4.0 program.

SH‐SY5Y cells = test: MTT cell viability assay; assay type: cell-based, human; details: Aβ25−35 aggregated with ERp57
Procedure: For the cell viability experiments, 96‐well plates were seeded with 10 000 cells/well. After 24 h, cells were treated with 30 μM Aβ25−35 aggregated for 72 h in the presence or in the absence of 0.12 μM of ERp57 or GST recombinant proteins (in a 1:250 ratio), in a final volume of 150 μl per well. Plates were incubated for 24 h in an incubator at 37°C, 5% of CO2, and 99% RH. Thereafter, 20 μl of (3‐[4,5‐Dimethylthiazol‐2‐yl]‐2,5‐Diphenyltetrazolium Bromide) (MTT) dye (stock solution 5 mg/ml in PBS) (catalog number #M2003) was added to the wells and incubated for additional 2 h at 37°C and 5% CO2. Water‐insoluble formazan crystals were dissolved in 100 μl of DMSO (catalog number #472301). For spectrophotometric measurements, Appliscan® plate reader (Thermo scientific) was used at the wavelength 570 nm, with reference set at 690 nm.

[1] = target: ERp57 (human recombinant PDIA3) (human) (UniProt P30101); test: SPR; ERp57 immobilised by amine coupling on a COOH5 sensorchip (about 4000 RU), SensiQ Pioneer; non-aggregated Aβ25-35 injected for 240 s at 30 μl/min at 15.6 μM to 1.0 mM; 25°C; HBSP buffer (20 mM HEPES pH 7.4, 150 mM NaCl, 0.005% Tween-20); global kinetic fits with one or two binding sites (Qdat 4.0)
tau = test system: tau; parameters: method as in Xu et al., [2013]; details: within the cell; ref Xu et al., [2013]; cited from earlier work
AD 5XFAD mice model = details: activation of ERp57, cerebral cortex and hippocampus, ref Tohda et al., [2012]; cited from earlier work
Source text: ERp57 has been previously linked to key processes in neurodegeneration and particularly in AD pathogenesis.

Kd (ERp57): 33 ± 2 µM
Compound: CC[C@H](C)[C@H](NC(=O)[C@H](C)NC(=O)CNC(=O)[C@H](CCCCN)NC(=O)[C@H](CC(N)=O)NC(=O)[C@H](CO)NC(=O)CN)C(=O)N[C@H](C(=O)NCC(=O)N[C@@H](CC(C)C)C(=O)N[C@@H](CCSC)C(=O)O)[C@@H](C)CC [Aβ25−35] (H-GSNKGAIIGLM-OH)
toxicity of Aβ25−35 bound by ERp57 (SH‐SY5Y cells): no longer leads to toxicity

KD1 (fit with two binding sites, high-affinity site) [1]: 34 µM
KD2 (fit with two binding sites, low-affinity site) [1]: 3.3 mM
Compound: Amyloid beta peptide fragment 25-35 (Aβ25-35)

Compound: PDI: protein disulfide isomerase
effect on tau fibril formation (tau): able to reduce the formation of tau fibrils

Compound: C[C@@H]1CC[C@@]2(OC1)O[C@H]1C[C@H]3[C@@H]4CC=C5C[C@@H](O)CC[C@]5(C)[C@H]4CC[C@]3(C)[C@H]1[C@@H]2C [diosgenin]
object recognition memory; amyloid plaques and neurofibrillary tangles (AD 5XFAD mice model): significantly improves performance of object recognition memory and reduces amyloid plaques and neurofibrillary tangles
